Assays:
[1] = people with average metabolic capacity for the compound; cited from earlier work
[2] = within six hours, at a half life of about 60 minutes
Description: It should be kept in mind that nicotine is a toxic compound. Therefore, only the minimum amount required for relief from smoking addiction or migraine symptoms should be used. […] Fortunately, nicotine is metabolized fairly rapidly.

adult = conditions: absorbed in one dose; cited from earlier work

CN1CCCC1c1cccnc1 (stereo not drawn) [nicotine]
half life [1]: about 60 minutes | amount remaining of one mg of nicotine absorbed in the body [2]: about 0.031 mg | lethal dose (adult): Sixty
